Earlier results in patent publication US9433643B2, “Microbicidal composition comprising hydrogen peroxide and aminocarboxylic acids” (Truox, Inc., priority 2013, dated 2016).

What was measured:
[1] = reported
[2] = at 25° C., reported

Structure (SMILES)	isoelectric point (pI) [2]	other results
O=C(O)CN(CCN(CC(=O)O)CC(=O)O)CC(=O)O [EDTA, ethylenediaminetetraacetic acid]		pK1 ([1]; carboxylic acid groups): 2.00; pK2 ([1]; carboxylic acid groups): 2.65; pK3 ([1]; carboxylic acid groups): 6.18; pK4 ([1]; carboxylic acid groups): 10.30
CC(=O)OO [Peroxyacetic acid]		pKa [1]: 4.76
C[C@H](N)C(=O)O [alanine]	6.11	
N=C(N)NCCC[C@H](N)C(=O)O [arginine]	10.76	
N[C@@H](CC(=O)O)C(=O)O [aspartic acid]	2.98	
N[C@@H](CCC(=O)O)C(=O)O [glutamic acid]	3.08	
NCC(=O)O [glycine, aminoethanoic acid]	6.06	
